Where no end group is shown, it is not given here.
Tests used:
[1] = target: DRB1*0101 (DR1) (Homo sapiens, UniProt P01903+P01911, A100R/D57E/F55L/F60I/F76Y/I96L/L162R/M171V/P40L/Q125E/R42F/V115G/Y59C); assay: HLA class II binding assay, purified HLA molecules; conditions: Her2/neu DR supertype primary binding, Table XXVIII
[2] = target: DRB1*0401 (DR4w4) (Homo sapiens, UniProt P01903+P01911, A100K/A169T/F76Y/I96L/K127E/L162R/M171V/N62H/P40V/Q125Y/R42H/S133A/S149N/S66Y/V115G/V209L/W38E); assay: HLA class II binding assay, purified HLA molecules; conditions: Her2/neu DR supertype primary binding, Table XXVIII
[3] = target: DRB1*0301 (DR3) (Homo sapiens, UniProt P01903+P01911, A100K/A102G/A103R/A169T/F55Y/I96L/K41T/L162R/M171V/P40S/Q125H/Q178H/Q39Y/R42S/S66N/T106N/T262R/W38E/Y61H); assay: HLA class II binding assay, purified HLA molecules; conditions: Table XXX
Sequence of DRB1*0301 (DR3) (P01903 26-254 limits assumed, other chains not shown): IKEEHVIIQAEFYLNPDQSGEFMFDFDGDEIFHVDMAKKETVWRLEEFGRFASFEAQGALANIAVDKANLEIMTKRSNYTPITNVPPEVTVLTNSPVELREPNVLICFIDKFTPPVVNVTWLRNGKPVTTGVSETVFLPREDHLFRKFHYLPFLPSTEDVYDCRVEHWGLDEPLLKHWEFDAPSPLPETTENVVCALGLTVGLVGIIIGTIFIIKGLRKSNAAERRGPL

[4] = test system: CD8+ T-cells; assay: Primary in vitro CTL induction with peptide-pulsed DC, 51Cr release and in situ IFNγ assays; assay type: cell-based, human
Procedure: The colon adenocarcinoma cell lines SW403 and HT-29 were obtained from the American Type Culture Collection (ATCC) (Rockville, MD). The cell lines that were obtained from ATCC were maintained under the culture conditions recommended by the supplier. […] The colon cancer cells were treated with 100U/ml IFNγ (Genzyme) for 48 hours at 37°C before use as targets in the ^51Cr release and in situ IFNγ assays.
The monocytes were purified by plating 10 x 10^6 PBMC/well in a 6-well plate. After 2 hours at 37°C, the non-adherent cells were removed by gently shaking the plates and aspirating the supernatants. The wells were washed a total of three times with 3 ml RPMI to remove most of the non-adherent and loosely adherent cells. Three ml of complete medium containing 50 ng/ml of GM-CSF and 1,000 U/ml of IL 4 were then added to each well. […]
Induction of CTL with DC and Peptide: CD8+ T-cells were isolated by positive selection with Dynal immunomagnetic beads (Dynabeads® M-450) and the detacha-bead® reagent. […] The DC were collected and centrifuged at 1300 rpm for 5-7 minutes, washed once with PBS with 1% BSA, counted and pulsed with 40µg/ml of peptide at a cell concentration of 1-2×10^6/ml in the presence of 3µg/ml ß2- microglobulin for 4 hours at 20°C. The DC were then irradiated (4,200 rads), washed 1 time with medium and counted again. […]

CSCC[C@H](NC(=O)[C@@H](NC(=O)[C@H](Cc1ccc(O)cc1)NC(=O)[C@H](C)NC(=O)[C@H](CCC(=O)O)NC(=O)[C@@H](N)CC(=O)O)C(C)C)C(=O)N[C@@H](C)C(=O)NCC(=O)N[C@H](C(=O)NCC(=O)N[C@@H](CO)C(=O)N1CCC[C@H]1C(=O)N[C@@H](Cc1ccc(O)cc1)C(=O)N[C@H](C(=O)N[C@@H](CO)C(=O)O)C(C)C)C(C)C [Her2/neu.769]
IC50 [1]: 100 nM | IC50 [2]: 196 nM

SLSFLQDIQEVQGYV [Her2/neu.70]
IC50 [3]: 5770 nM

CC(C)C[C@H](NC(=O)[C@H](CO)NC(=O)CNC(=O)[C@H](Cc1ccccc1)NC(=O)[C@@H](NC(=O)[C@@H](N)CCCCN)C(C)C)C(=O)N[C@@H](C)C(=O)N[C@@H](Cc1ccccc1)C(=O)N[C@H](C(=O)O)C(C)C [V2V9]
recognition of wild-type peptide and of tumor targets that endogenously express HER2/neu by the induced CTLs ([4]; expanded positive cultures): also recognized the target tumor cells | induction of peptide-specific CTL response ([4]; normal donors, peptide-pulsed targets): induced peptide-specific CTLs

CSCC[C@H](NC(=O)[C@H](CCCNC(=N)N)NC(=O)[C@H](CO)NC(=O)[C@H](Cc1ccccc1)NC(=O)[C@H](CCC(=O)O)NC(=O)[C@H](CO)NC(=O)[C@@H](NC(=O)[C@H](CC(C)C)NC(=O)[C@H](CCC(=O)O)NC(=O)[C@H](CCCNC(=N)N)NC(=O)[C@@H](N)Cc1ccccc1)C(C)C)C(=O)N[C@@H](C)C(=O)N[C@@H](CCCNC(=N)N)C(=O)N[C@@H](CC(=O)O)C(=O)N1CCC[C@H]1C(=O)O [Her2/neu.969]
IC50 [3]: 4220 nM

Reference: patent EP1568373A2, “Inducing cellular immune responses to HER2/neu using peptide and nucleic acid compositions” (priority 1999, dated 2001)
